How the values were obtained:
[1] = system: PR mRNA in MCF-7 cells; test: Quantitative RT-PCR of PR mRNA in MCF-7 cells; format: cell-based, human; conditions: 20 μM
Method: It should however be understood that the augmented expression of ER-α and PR presented in FIGS. 1-3 could have in principle originated from increase in either transcription or translation associated with the respective steroid receptor genes. Therefore the effects of long term incubation with 1,3cPP on the respective ER-α and PR mRNA levels were examined. Quantitative RT-PCR was carried out with a Light Cycler as described. […] In contrast, only 20 μM 1,3-cPP were required to induce 7-fold increase in the ER-α mRNA in T47D clone 8 cells (FIG. 4D). […]
(§1) RT-PCR was carried out on a programmable thermal controller instrument according to standard protocols, where the annealing temperatures were 58° C. for ER-α and 56° C. for PR. […] The PCR products were diluted and used to build a standard curve for the quantitative PCR which was carried out in a Light Cycler instrument (Roche Diagnostics, Mannheim, Germany). […] For each control and test sample, the amount of the constitutively expressed house keeping enzyme glyceraldehyde-3-phosphate dehydrogenase (GAPDH) mRNA was quantified by using appropriate primers and the quantity of ER-α and PR mRNA were normalized to the quantity of GAPDH mRNA in each sample. The relative amounts of ER-α and PR mRNA were expressed as normalized 1,3cPP treatment values divided by the normalized control values.

[2] = system: MCF-7 cells; test: Anti-tumor assay, MCF-7 tumors in athymic CD-1 mice; format: in vivo
Method: To test this possibility, we followed the procedure of Kurokawa et al. Female athymic outbred CD-1 mice were implanted with a slow release estradiol tablet and injected intra-fat-pad (i.f.p.) in the lower right abdomen 3×10^6 viable MCF-7 cells (see Materials and Methods). Twelve days later, when the tumors became palpable, mice were randomly allocated into two groups, each with six mice. The control group was injected with PBS i.p. and the treatment group was injected with 0.5 mg 1,3cPP dissolved in PBS i.p. in the lower left abdomen on day 1,3,6, and 8. Tumor size was then measured 2-3 times a week. In the control group, the tumors grew continuously and reached an average size of >1250 mm^3. The origin of the large variation in tumor size was due to one mouse with a relatively small tumor in this group.
Female athymic outbred CD-1 mice 12 weeks of age were obtained from the animal breeding center of our Institute. Animals were maintained and treated according to “Principles of laboratory animal care”, (NIH publication no. 85-23) under the supervision of the Council for Experiments on animals, of our Institute. Mice were anesthetized and implanted subcutaneously with a 0.25 mg, 21-day release 17β-estradiol pellet (Innovative Research of America, Sarasota, Fla.) in the dorsal space and injected intra-fat-pad (i.f.p.) in the lower right abdomen with 3×10^6 MCF-7 cells. Twelve days later, when the tumors became palpable, mice were randomly allocated into two groups, each with 6 mice. The control group was injected with PBS and the treatment group was injected with 0.5 mg 1,3cPP in PBS i.p. in the lower left abdomen on day 1,3,6, and 8. Tumor diameters were serially measured with calipers assuming a hemiellipsoid shape, where volume=[…]×(length/2)×(width/2)×(thickness/2).

[3] = system: ER-α mRNA in MCF-7 cells; test: Quantitative RT-PCR of ER-α mRNA in MCF-7 cells; format: cell-based, human
Method: It should however be understood that the augmented expression of ER-α and PR presented in FIGS. 1-3 could have in principle originated from increase in either transcription or translation associated with the respective steroid receptor genes. Therefore the effects of long term incubation with 1,3cPP on the respective ER-α and PR mRNA levels were examined. Quantitative RT-PCR was carried out with a Light Cycler as described. […] In contrast, only 20 μM 1,3-cPP were required to induce 7-fold increase in the ER-α mRNA in T47D clone 8 cells (FIG. 4D). The analogous data for PR are depicted for MCF-7 cells in FIGS. 5A-B where at 20 μM, there was a 3 fold increase in the normalized PR mRNA expression on the 8th day. This increase receded to about 1.5-fold by the 11th day.
MCF-7 and T47D cells were cultured and treated as described above. Total cellular RNA was extracted with TRI reagent according to the manufacturer's instructions (Molecular Research Center, Inc. Cincinnati, Ohio). Reverse transcription (RT) was performed in a total reaction mixture of 20 μl with 1-5 μg RNA by first heating to 65° C. for 5 min in the presence of 25 μg/ml Oligo (dT)12-18, and 0.5 mM deoxynucleotide triphosphates (dNTP). The RT reaction mixture was then quickly cooled on ice. […]
as §1

[4] = 0.5 mg i.p. on day 1,3,6 and 8, athymic CD-1 mice

## O=P1(O)OCCCO1 [1,3-cPP, 1,3-cyclic propanediol phosphate]
[1]; 8th day
  increase in the normalized PR mRNA expression: 3 fold
[1]; 11th day
  increase in the normalized PR mRNA expression: about 1.5 fold
[2]; [4]
  changes in appearance, body weight or behavior upon injection: no changes in appearance, body weight or behavior
  toxic effects during the course of the experiment: No observable toxic effects
[2]; 0.5 mg i.p. on day 1,3,6 and 8, day 36 (P=0.032) and day 43 (P=0.032), MCF-7 tumors in athymic CD-1 mice
  tumor size, treatment versus control group: significant difference
[3]; 50 μM, 11th day
  increase in the normalized ER-α mRNA transcription: 10 fold
[3]; 100 μM, day 6, normalized to GAPDH, relative to control
  increase in the normalized ER-α mRNA transcription: 6 fold
[3]; 100 μM, day 14, normalized to GAPDH, relative to control
  increase in the normalized ER-α mRNA transcription: 6 fold
